Legend:
SETVI [1] = experiment: B. Herbicidal post-emergence action on harmful plants (Tables B); assay type: in vivo, Setaria viridis; details: application rate 1280 g/ha; Table B5
Summary of the method: (§1)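 Greenhouse weeds grown in sandy loam were sprayed post-emergence at the one-leaf stage, 2-3 weeks after sowing. Compounds were applied as WP or EC in water with 0.5% additive at 600 L/ha, at 1280 g/ha or below. Visual damage was rated after about 3 weeks versus untreated plants (0-100%).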

POAAN [2] = experiment: A. Herbicidal pre-emergence action on harmful plants (Tables A); assay type: in vivo, Poa annua
Summary of the method: (§2)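 Values are visual percent damage relative to untreated controls, scored ca. 3 weeks after the compound was sprayed on the covering soil of sown pots (sandy loam) at rates up to 1280 g/ha, formulated as WP or EC with 0.5% additive.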

AMARE [3] = experiment: as above; assay type: in vivo, Amaranthus retroflexus; details: application rate 1280 g/ha; visual grading after ca. 3 weeks vs untreated controls; 100% = plants have died off, 0% = as control plants
Summary of the method: as §2

DIGSA = experiment: as above; assay type: in vivo, Digitaria sanguinalis
Summary of the method: as §2

AMARE [4] = experiment: B. Herbicidal post-emergence action on harmful plants (Tables B); assay type: in vivo, Amaranthus retroflexus; details: application rate 1280 g/ha; Table B8
Protocol: (§3) Seeds of mono- and dicotyledonous weed plants were placed in plastic pots in sandy loam soil (doubly sown with in each case one species of mono- or dicotyledonous weed plants per pot), covered with soil and cultivated in a greenhouse under controlled growth conditions. 2 to 3 weeks after sowing, the test plants were treated at the one-leaf stage. The compounds of the invention, formulated in the form of wettable powders (WP) or as emulsion concentrates (EC), were applied onto the green parts of the plants as aqueous suspension or emulsion with addition of 0.5% additive at a water application rate of 600 liters per hectare (converted). After the test plants had been kept in the greenhouse under optimum growth conditions for about 3 weeks, the activity of the preparations was rated visually in comparison to untreated controls. For example, 100% activity = the plants have died, 0% activity = like control plants. Tables B1 to B12, below, show the effects of selected compounds of the general formula (I) according to table 1 on various harmful plants and an application rate corresponding to 1280 g/ha or below obtained by the experimental procedure mentioned above. Table B1a: post-emergence activity at 1280g/ha against ABUTH in %

LOLRI = experiment: A. Herbicidal pre-emergence action on harmful plants (Tables A); assay type: in vivo, Lolium rigidum; details: visual grading after ca. 3 weeks vs untreated controls, 100% = plants have died off, 0% = as control plants
Summary of the method: as §2

KCHSC = experiment: B. Herbicidal post-emergence action on harmful plants (Tables B); assay type: in vivo, Kochia scoparia; details: application rate 1280 g/ha; Table B10a
Protocol: as §3

MATIN = experiment: A. Herbicidal pre-emergence action on harmful plants (Tables A); assay type: in vivo, Matricaria inodora; details: application rate 1280 g/ha; visual grading after ca. 3 weeks vs untreated controls; 100% = plants have died off, 0% = as control plants
Summary of the method: as §2

POAAN [5] = experiment: B. Herbicidal post-emergence action on harmful plants (Tables B); assay type: in vivo, Poa annua; details: application rate 1280 g/ha; Table B7a
Summary of the method: as §1

ECHCG = experiment: A. Herbicidal pre-emergence action on harmful plants (Tables A); assay type: in vivo, Echinochloa crus-galli; details: visual grading after ca. 3 weeks vs untreated controls, 100% = plants have died off, 0% = as control plants
Summary of the method: as §2

ABUTH = experiment: as above; assay type: in vivo, Abutilon theophrasti; details: application rate 1280 g/ha; visual grading after ca. 3 weeks vs untreated controls; 100% = plants have died off, 0% = as control plants
Source text: Seeds of mono- and dicotyledonous weed plants were sown in plastic pots (double sowings with one species of mono- and one species of dicotyledonous weed plants per pot), in sandy loam, and covered with soil. The compounds according to the invention, formulated in the form of wettable powders (WP) or as emulsifiable concentrates (EC), were applied to the surface of the covering soil as aqueous suspension or emulsion, with the addition of 0.5% of an additive, at an application rate of 6001 of water per hectare (converted). Following treatment, the pots were placed in a greenhouse and kept under optimum growth conditions for the test plants. The visual grading of the damage to the test plants was carried out after ca. 3 weeks in comparison to untreated controls (herbicidal effect in percent (%): 100% effect = plants have died off, 0% effect = as control plants). Tables A1 to A12, below, show the effects of selected compounds of the general formula (I) according to table 1 on various harmful plants and an application rate corresponding to 1280 g/ha or below obtained by the experimental procedure mentioned above. Table A1: pre-emergence activity at 1280g/ha against ABUTH in %

STEME [6] = experiment: as above; assay type: in vivo, Stellaria media; details: visual grading after ca. 3 weeks vs untreated controls, 100% = plants have died off, 0% = as control plants
Summary of the method: as §2

STEME [7] = experiment: B. Herbicidal post-emergence action on harmful plants (Tables B); assay type: in vivo, Stellaria media; details: application rate 1280 g/ha; Table B6
Summary of the method: as §1

SETVI [8] = experiment: A. Herbicidal pre-emergence action on harmful plants (Tables A); assay type: in vivo, Setaria viridis; details: visual grading after ca. 3 weeks vs untreated controls, 100% = plants have died off, 0% = as control plants
Summary of the method: as §2

Cn1ncc(C(=O)N2CCCC2Cc2ccccc2F)c1COCC(F)(F)F (single isomer, unassigned) [Example I-122]
post-emergence activity against SETVI (SETVI [1]): 90%
pre-emergence activity against POAAN (POAAN [2]; application rate 80 g/ha, Table A7c): 90%
pre-emergence activity against POAAN (POAAN [2]; application rate 320 g/ha, Table A7b): 100%
pre-emergence activity against POAAN (POAAN [2]; application rate 1280 g/ha, visual grading after ca. 3 weeks vs untreated controls, 100% = plants have died off, 0% = as control plants): 100%
pre-emergence activity against AMARE (AMARE [3]): 100%
pre-emergence activity against DIGSA (DIGSA; application rate 80 g/ha, Table A12c): 90%
pre-emergence activity against DIGSA (DIGSA; application rate 320 g/ha, Table A12b): 90%
pre-emergence activity against DIGSA (DIGSA; application rate 1280 g/ha, Table A12a): 100%
post-emergence activity against AMARE (AMARE [4]): 90%
pre-emergence activity against LOLRI (LOLRI; application rate 320 g/ha): 100%
pre-emergence activity against LOLRI (LOLRI; application rate 1280 g/ha): 100%
post-emergence activity against KCHSC (KCHSC): 90%
pre-emergence activity against MATIN (MATIN): 100%
post-emergence activity against POAAN (POAAN [5]): 90%
pre-emergence activity against ECHCG (ECHCG; application rate 80 g/ha): 90%
pre-emergence activity against ECHCG (ECHCG; application rate 320 g/ha): 100%
pre-emergence activity against ECHCG (ECHCG; application rate 1280 g/ha): 100%
pre-emergence activity against ABUTH (ABUTH): 100%
pre-emergence activity against STEME (STEME [6]; application rate 320 g/ha): 90%
pre-emergence activity against STEME (STEME [6]; application rate 1280 g/ha): 100%
post-emergence activity against STEME (STEME [7]): 90%
pre-emergence activity against SETVI (SETVI [8]; application rate 80 g/ha): 90%
pre-emergence activity against SETVI (SETVI [8]; application rate 320 g/ha): 90%
pre-emergence activity against SETVI (SETVI [8]; application rate 1280 g/ha): 100%
